Measured values: patent US20060069132A1, “Azolecarboxamide herbicides” (priority 2004, published 2006)

Assays:
giant foxtail [1] = experiment: Test B pre-/postemergence herbicide test; format: in vivo, Setaria faberi; conditions: for Foxtail, Giant plant response rating: postemergence
Outline: (§1)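 Herbicidal effect was judged by eye on a 0–100 scale after plants stood 13 to 15 days in the greenhouse following pre- or postemergence treatment with surfactant-containing formulations.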

pigweed = experiment: Test B pre-/postemergence herbicide test; format: in vivo, Amaranthus retroflexus; conditions: for Pigweed plant response rating: postemergence
Outline: as §1

large crabgrass [2] = experiment: Test B pre-/postemergence herbicide test; format: in vivo, Digitaria sanguinalis; conditions: for Crabgrass, Large plant response rating: postemergence
Outline: as §1

cocklebur = experiment: Test B pre-/postemergence herbicide test; format: in vivo, Xanthium strumarium; conditions: for Cocklebur plant response rating: postemergence
Outline: (§2)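 Seeds were planted and treated preemergence with compounds formulated in a non-phytotoxic solvent mixture containing surfactant, while plants at the 1- to 4-leaf stage (2 to 18 cm) received postemergence sprays. Flooded paddy plants were grown to the 2-leaf stage. After 13 to 15 days in a greenhouse, injury was visually rated 0–100 against untreated controls.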

redroot pigweed = experiment: Test A pre-/postemergence herbicide test; format: in vivo, Amaranthus retroflexus
Outline: (§3)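 Seeds sown in sandy loam received a preemergence directed soil spray of compound in non-phytotoxic solvent with surfactant; postemergence plants (2–10 cm, one- to two-leaf stage) were sprayed to runoff at the same time. After ~10 days in greenhouse, injury was rated visually versus untreated controls (0 = no effect, 100 = complete control).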

rice [3] = experiment: Test B pre-/postemergence herbicide test; format: in vivo, Oryza sativa; conditions: 0 = no effect, 100 = complete control, preemergence
Outline: as §1

barnyardgrass [4] = experiment: Test A pre-/postemergence herbicide test; format: in vivo, Echinochloa crus-galli
Outline: as §3

morningglory [5] = experiment: Test A pre-/postemergence herbicide test; format: in vivo, Ipomoea spp.
Outline: as §3

barnyardgrass [6] = experiment: Test B flooded paddy test; format: in vivo, Echinochloa crus-galli; conditions: 1000 g ai/ha, scale 0 to 100 (0 no effect, 100 complete control)
Outline: (§4)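 Postemergence plants were sprayed with formulated test chemicals at 2 to 18 cm height (1- to 4-leaf stage); paddy species were grown to the 2-leaf stage. After 13 to 15 days in a greenhouse, injury was rated visually against untreated controls on a 0–100 scale (0 = no effect, 100 = complete control).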

lambsquarters = experiment: Test B pre-/postemergence herbicide test; format: in vivo, Chenopodium album; conditions: for Lambsquarters plant response rating: postemergence
Outline: as §1

blackgrass = experiment: Test B postemergence herbicide test; format: in vivo, Alopecurus myosuroides; conditions: postemergence
Outline: as §4

[7] = system: small flower umbrella sedge; experiment: Test B flooded paddy test; format: in vivo, Cyperus difformis; conditions: 1000 g ai/ha, scale 0 to 100 (0 no effect, 100 complete control)
Outline: as §4

wild oat = experiment: Test B postemergence herbicide test; format: in vivo, Avena fatua; conditions: postemergence
Outline: (§5)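 Read-out: visual comparison with controls, scored 0 to 100, where 100 means complete control and 0 no effect. Formulated chemicals were applied postemergence to plants 2–18 cm tall (1- to 4-leaf), or to flooded-paddy plants at the 2-leaf stage, then held 13 to 15 days under glass.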

large crabgrass [8] = experiment: Test A pre-/postemergence herbicide test; format: in vivo, Digitaria sanguinalis
Outline: as §3

barnyardgrass [9] = experiment: Test B pre-/postemergence herbicide test; format: in vivo, Echinochloa crus-galli; conditions: for Barnyardgrass plant response rating: postemergence
Outline: as §2

morningglory [10] = experiment: Test B pre-/postemergence herbicide test; format: in vivo, Ipomoea coccinea; conditions: for Morningglory plant response rating: postemergence
Outline: as §2

rice [11] = experiment: Test B flooded paddy test; format: in vivo, Oryza sativa; conditions: 1000 g ai/ha, scale 0 to 100 (0 no effect, 100 complete control)
Outline: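 Treated at 2-leaf (paddy) or 1–4-leaf, 2–18 cm (postemergence); greenhouse 13–15 d; visual score vs control, 0 none to 100 complete control; dash = not tested.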

Surinam grass = experiment: Test B pre-/postemergence herbicide test; format: in vivo, Urochloa decumbens; conditions: for Surinam Grass plant response rating: postemergence
Outline: as §1

giant foxtail [12] = experiment: Test A pre-/postemergence herbicide test; format: in vivo, Setaria faberi
Outline: as §3

wheat = experiment: Test B postemergence herbicide test; format: in vivo, Triticum aestivum; set-up: key to Wheat plant response rating: 0 = no effect, 100 = complete control; conditions: postemergence
Outline: as §5

corn = experiment: Test B pre-/postemergence herbicide test; format: in vivo, Zea mays; conditions: for Corn plant response rating: postemergence
Outline: as §1

ducksalad = experiment: Test B flooded paddy test; format: in vivo, Heteranthera limosa; conditions: 1000 g ai/ha, scale 0 to 100 (0 no effect, 100 complete control)
Outline: as §4

velvetleaf [13] = experiment: Test B pre-/postemergence herbicide test; format: in vivo, Abutilon theophrasti; conditions: for Velvetleaf plant response rating: postemergence
Outline: as §1

velvetleaf [14] = experiment: Test A pre-/postemergence herbicide test; format: in vivo, Abutilon theophrasti
Outline: as §3

[15] = 125 g ai/ha, 0 = no effect, 100 = complete control, preemergence
[16] = 500 g ai/ha, visual rating, 0 = no effect, 100 = complete control, preemergence
[17] = 125 g ai/ha, visual rating, scale 0 (no effect) to 100 (complete control)
[18] = 500 g ai/ha, scale 0 to 100, 0 is no effect, 100 is complete control
[19] = Postemergence, 500 g ai/ha, 0 to 100 scale, 0 no effect, 100 complete control
[20] = Postemergence, 2000 g ai/ha, 0 to 100 scale, 0 no effect, 100 complete control
[21] = Preemergence, 2000 g ai/ha, visual rating, 0 to 100 scale (0 no effect, 100 complete control)
[22] = preemergence, 500 g ai/ha, visual injury, 0 to 100 scale (0 no effect, 100 complete control)

CCn1nc(C(C)(C)C)cc1C(=O)Nc1nc(C(=O)N(C)C)ccc1F [Compound 277]
Foxtail, Giant plant response rating (0 to 100 scale) (giant foxtail [1]; [15]): 0
Plant response rating, Foxtail, Giant (giant foxtail [1]; [16]): 0
Foxtail, Giant plant response rating (giant foxtail [1]; [17]): 0
Foxtail, Giant plant response rating (giant foxtail [1]; [18]): 0
Pigweed plant response rating (0 to 100 scale) (pigweed; [15]): 60
Plant response rating, Pigweed (pigweed; [16]): 100
Pigweed plant response rating (pigweed; [17]): 0
Pigweed plant response rating (pigweed; [18]): 10
Crabgrass, Large plant response rating (0 to 100 scale) (large crabgrass [2]; [15]): 0
Plant response rating, Crabgrass, Large (large crabgrass [2]; [16]): 0
Crabgrass, Large plant response rating (large crabgrass [2]; [17]): 0
Crabgrass, Large plant response rating (large crabgrass [2]; [18]): 0
Cocklebur plant response rating (0 to 100 scale) (cocklebur; [15]): 0
Plant response rating, Cocklebur (cocklebur; [16]): 10
Cocklebur plant response rating (cocklebur; [17]): 0
Cocklebur plant response rating (cocklebur; [18]): 0
Pigweed plant response rating (redroot pigweed; [19]): 10
Plant response rating, Pigweed (redroot pigweed; [20]): 35
Pigweed plant response rating (redroot pigweed; [21]): 70
Pigweed plant response rating (redroot pigweed; [22]): 40
Rice plant response rating (0 to 100 scale) (rice [3]; 125 g ai/ha): 0
Plant response rating, Rice (rice [3]; 500 g ai/ha, visual rating): 20
Barnyardgrass plant response rating (barnyardgrass [4]; [19]): 0
Plant response rating, Barnyardgrass (barnyardgrass [4]; [20]): 50
Barnyardgrass plant response rating (barnyardgrass [4]; [21]): 70
Barnyardgrass plant response rating (barnyardgrass [4]; [22]): 0
Morningglory plant response rating (morningglory [5]; [19]): 0
Plant response rating, Morningglory (morningglory [5]; [20]): 0
Morningglory plant response rating (morningglory [5]; [21]): 0
Morningglory plant response rating (morningglory [5]; [22]): 0
Barnyardgrass plant response rating (barnyardgrass [6]): 0
Lambsquarters plant response rating (0 to 100 scale) (lambsquarters; [15]): 40
Plant response rating, Lambsquarters (lambsquarters; [16]): 80
Lambsquarters plant response rating (lambsquarters; [17]): 20
Lambsquarters plant response rating (lambsquarters; [18]): 30
Blackgrass plant response rating (blackgrass; [17]): 10
Blackgrass plant response rating (blackgrass; [18]): 20
Sedge, Umbrella plant response rating [7]: 0
Oat, Wild plant response rating (wild oat; [17]): 10
Oat, Wild plant response rating (wild oat; [18]): 20
Crabgrass, Large plant response rating (large crabgrass [8]; [19]): 0
Plant response rating, Crabgrass, Large (large crabgrass [8]; [20]): 0
Crabgrass, Large plant response rating (large crabgrass [8]; [21]): 25
Crabgrass, Large plant response rating (large crabgrass [8]; [22]): 0
Barnyardgrass plant response rating (0 to 100 scale) (barnyardgrass [9]; [15]): 0
Plant response rating, Barnyardgrass (barnyardgrass [9]; [16]): 0
Barnyardgrass plant response rating (barnyardgrass [9]; [17]): 0
Barnyardgrass plant response rating (barnyardgrass [9]; [18]): 0
Morningglory plant response rating (0 to 100 scale) (morningglory [10]; [15]): 0
Plant response rating, Morningglory (morningglory [10]; [16]): 0
Morningglory plant response rating (morningglory [10]; [17]): 0
Morningglory plant response rating (morningglory [10]; [18]): 20
Rice plant response rating (rice [11]): 0
Surinam Grass plant response rating (0 to 100 scale) (Surinam grass; [15]): 0
Plant response rating, Surinam Grass (Surinam grass; [16]): 0
Surinam Grass plant response rating (Surinam grass; [17]): 0
Surinam Grass plant response rating (Surinam grass; [18]): 0
Foxtail, Giant plant response rating (giant foxtail [12]; [19]): 0
Plant response rating, Foxtail, Giant (giant foxtail [12]; [20]): 0
Foxtail, Giant plant response rating (giant foxtail [12]; [21]): 55
Foxtail, Giant plant response rating (giant foxtail [12]; [22]): 0
Wheat plant response rating (wheat; [17]): 20
Wheat plant response rating (wheat; [18]): 20
Corn plant response rating (0 to 100 scale) (corn; [15]): 0
Plant response rating, Corn (corn; [16]): 0
Corn plant response rating (corn; [17]): 0
Corn plant response rating (corn; [18]): 10
Ducksalad plant response rating (ducksalad): 0
Velvetleaf plant response rating (0 to 100 scale) (velvetleaf [13]; [15]): 0
Plant response rating, Velvetleaf (velvetleaf [13]; [16]): 40
Velvetleaf plant response rating (velvetleaf [13]; [17]): 20
Velvetleaf plant response rating (velvetleaf [13]; [18]): 20
Velvetleaf plant response rating (velvetleaf [14]; [19]): 25
Plant response rating, Velvetleaf (velvetleaf [14]; [20]): 30
Velvetleaf plant response rating (velvetleaf [14]; [21]): 45
Velvetleaf plant response rating (velvetleaf [14]; [22]): 5
